Reference: publication PMC11989212, “Experimental Conditions to Retrieve Intrinsic Cooperativity α Directly from Single Binding Assay Data Exemplified by the Ternary Complex Formation of FKBP12, MAPRE1 and Macrocyclic Molecular Glues” (International Journal of Molecular Sciences, 2025)
pEC50, pKd: −log10 of the molar value. Entries after “also recorded” stand apart in the source; their conditions may differ.

Columns and labels:
[1] = biological target: T1, FKBP12 (Homo sapiens, UniProt P62942); design: method as in PMID 40059881; settings: TR-FRET competitive binding assay from previous work; read-out: EC50_FKBP12; cited from earlier work
T1 sequence (P62942 whole entry, species assumed): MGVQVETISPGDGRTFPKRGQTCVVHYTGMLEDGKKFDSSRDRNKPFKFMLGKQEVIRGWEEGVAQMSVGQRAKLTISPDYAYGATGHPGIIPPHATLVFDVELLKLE

[2] = biological target: T2, MAPRE1 in the presence of FKBP12 (Homo sapiens, UniProt P62942+Q15691); test: Spectral shift target engagement assay, binding to MAPRE1 in the presence of 10 μM FKBP12 (ternary)
T2 construct: His-tag (N)
T2 sequence (P62942 whole entry, one chain of several): as the sequence (P62942 whole entry, species assumed) above
Description: (§1) Our method of choice is the spectral shift method, which monitors binding events on the target isothermally and in equilibrium via an environment-sensitive near-infrared fluorophore. In the case of target engagement, either the proximity of the ligand towards the dye or structural changes occurring in the target as a result of binding lead to a change in the chemical environment of the fluorophore. Those changes affect the physiochemical properties of the reporter fluorophore and translate into either blue or red shifts (or peak broadening) of emission peaks upon ligand binding, which can be sensitively monitored by simultaneously recording the fluorescence at two wavelengths (i.e., at 650 nm and 670 nm). Calculating the ratio between the two fluorescence channels then allows to monitor subtle emission shifts that occur as a result of target engagement. Affinity measurements can then be performed by recording the spectral shift as a function of ligand concentration.
Binding study through MAPRE1: MAPRE1 was labeled via lysines using an NHS-conjugated dye. The final concentration of MAPRE1NHS (referring to [Ttot]) was 5 nM. Compounds could be titrated up to a concentration of 200 μM (referring to [Ltot]). […] However more accuracy could only be achieved at higher ligand concentrations—ideally at full target saturation. However, this was experimentally infeasible due to assay conditions (i.e., the requirement of maintaining a certain DMSO concentration or avoiding solubility issues of the ligand). Although the determined KT,1 values of binding to MAPRE1 are only approximations, their relative ranking reflects the underlying differences in the affinity of the ligands L to MAPRE1. Performing these experiments in duplicates confirmed the high signal-to-noise ratio, i.e., there was no significant deviation between the two curves, indicating a high accuracy of the interpolated EC50 values. Due to the low [Ttot] = 5 nM, this value coincides with KT,1 (1.8 mM − 0.005 mM/2 ≈ 1.8 mM). […] Consequently, KT,2 corresponds to 173 nM and not 177.5 nM.
(§2) His-tagged FKBP12 was labeled using the His-Tag Labeling Kit RED-tris-NTA 2nd Generation (MO-L018; NanoTemper Technologies GmbH). The affinity between NTA dye and the His-tag of FKBP12 was determined as 7 nM. MAPRE1 was labeled using the Protein Labeling Kit RED-NHS 2nd Generation (MO-L011; NanoTemper Technologies GmbH). In brief, 10 µM of MAPRE1 was incubated with a 3-fold molar excess of fluorophore for 30 min. The unreacted fluorophore was removed by performing a size exclusion purification (B-column). Collecting the protein fraction yielded 1.8 µM labeled MAPRE1, with a degree of labeling of 0.8, as determined on a Nanodrop.
A 1:2 dilution series of all compounds (starting from the 10 mM stock concentration) was prepared in pure DMSO. Each concentration was diluted 25-fold with assay buffer (20 mM HEPES, pH 7.4, 150 mM NaCl, 1 mM DTT (all from Carl Roth, Karlsruhe, Germany), and 0.01% Pluronic F-127 (Sigma Aldrich, Taufkirchen, Germany)). Next, 10 µL from each of the prepared ligand dilutions was transferred into an empty well on a Dianthus Microwell Plate (DI-P001A). Another 10 µL of 2-fold concentrated labeled protein (either in the absence or the presence of 20 µM counter protein, both in assay buffer then yielded the final assay concentrations. Interaction measurements were prepared in duplicates for each condition. For binary interactions of compounds with MAPRE1, a final target concentration of 5 nM and a highest ligand concentration of 50 µM was prepared. For ternary interactions of compounds and MAPRE1 in the presence of 10 µM unlabeled FKBP12, the highest ligand concentration was increased to 200 µM, the highest concentration achievable while maintaining a constant 2% DMSO concentration. For all interactions measured via FKBP12, the target was prepared at a final concentration of 40 nM, supplemented with 5 nM NTA fluorophore. […]

[3] = biological target: FKBP12 in the presence of MAPRE1 (Homo sapiens, UniProt P62942+Q15691); test: Spectral shift target engagement assay, binding to FKBP12 in the presence of 10 μM MAPRE1 (ternary); settings: 40 nM FKBP12-NTA, 10 μM MAPRE1; read-out: EC50 of the %Cbound, ternary curve (measured)
Sequence of FKBP12 in the presence of MAPRE1 (P62942 whole entry, one chain of several): as the sequence (P62942 whole entry, species assumed) above
Description: as §1
(§3) Binding studies through FKBP12: To monitor the binding of R,--SLF-11 by the stronger binding FKBP12 in the absence and in the presence of 10 μM MAPRE1 via %Cbound, binary and %Cbound, ternary, respectively, the concentration of reversibly NTA-labeled FKBP12 was limited to [Ctot] = 40 nM. […] In contrast to the experimental setup in the previous two binding experiments with monitoring through the weaker binding protein MAPRE1, where the applied protein concentrations were optimally chosen, this is not the case for the binding experiment through the stronger binder FKBP12. First of all, the applied excess of T with [Ttot] = 10 μM is roughly 20000-fold off of the proposed 100 times KT,1 threshold, which would correspond to 180 mM. Only under such excess conditions of T can the equilibrium of forming TL under the constraint that all ligand L is bound to T be reached to ensure that [Ltot] approaches the “ligand” concentration [TL]. […] If KC,2 is sufficiently high, the 20 nM deviation to correct for the protein concentration could be neglected. However, the resulting calculated value for KC,2 is 0.023 nM, accounting for the cooperativity α = 10,405 and KC,1 = 234 nM as derived by the MAPRE1 experiment. This value is far below the applied protein concentration of [Ctot] = 40 nM and makes it infeasible to estimate KC,2 from the EC50 of the %Cbound, ternary curve. Consequently, the EC50 shifts, meaning the apparent cooperativity, from monitoring the binding by the stronger binding protein C are diverging from the underlying intrinsic cooperativity α. […] The deviation of calculated (254 nM/24.2 nM = 10.5) and measured apparent cooperativity (254 nM/66 nM = 3.8) can be explained by a negative cooperativity induced by the His6-NTA tag of FKBP12. Studies to lower [Ctot] and identify a better position for the spectral shift tag on FKBP12 are ongoing (Figure 6a).
as §2
(§4) A 1:2 dilution series of all compounds (starting from the 10 mM stock concentration) was prepared in pure DMSO. Each concentration was diluted 25-fold with assay buffer (20 mM HEPES, pH 7.4, 150 mM NaCl, 1 mM DTT (all from Carl Roth, Karlsruhe, Germany), and 0.01% Pluronic F-127 (Sigma Aldrich, Taufkirchen, Germany)). Next, 10 µL from each of the prepared ligand dilutions was transferred into an empty well on a Dianthus Microwell Plate (DI-P001A). […]

[4] = biological target: T3, MAPRE1 (Homo sapiens, UniProt Q15691); test: Spectral shift target engagement assay, binary binding to MAPRE1; settings: up to [Ltot] = 200 μM
T3 construct: His-tag (N)
T3 sequence (Q15691 1-268): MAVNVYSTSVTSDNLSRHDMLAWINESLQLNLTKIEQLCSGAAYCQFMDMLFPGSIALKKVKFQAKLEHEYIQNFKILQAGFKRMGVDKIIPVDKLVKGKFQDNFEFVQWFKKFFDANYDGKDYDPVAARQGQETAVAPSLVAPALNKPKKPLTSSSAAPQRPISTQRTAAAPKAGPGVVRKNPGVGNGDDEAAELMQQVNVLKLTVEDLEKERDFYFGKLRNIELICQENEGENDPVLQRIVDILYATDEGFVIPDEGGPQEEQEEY

[5] = biological target: T1, FKBP12; test: Spectral shift target engagement assay, binary binding to FKBP12; settings: 40 nM FKBP12-NTA; KC,1 = EC50 − [Ctot]/2
Description: as §1, §3, §2, §4

[6] = test system: FKBP12:R,S-SLF-X:MAPRE1 ternary complex; design: method as in PMID 40059881; settings: TR-FRET proximity assay, reported earlier; cited from earlier work

In the case of COc1ccc(CCC2OC(=O)C3CCCCN3C(=O)C(=O)C(C)(C)COC(=O)C(C)NC(=O)C3CC(O)CN3C(=O)COc3cccc2c3)cc1OC (stereo not shown) [R,S-SLF-12], the pEC50 [1] is given as 7.37, the “ternary binding to MAPRE1” value ([2]; 10 μM FKBP12) is given as “Neither binary nor ternary binding” and the “Ratio [Ctot]/KC,1” value ([2]; [Ctot] = 10 μM FKBP12) is given as 769. The pEC50 [3] was 7.52, the “binary binding to MAPRE1 (%Tbound, binary)” value [4] was “no binding; also recorded: Neither binary nor ternary binding” and the pKd [5] was 7.89. For the same compound, the “TR-FRET Recruitment Assay (%Amax)” value [6] was 0%.
